The source of these data is patent publication EP2918282A1, “Pharmaceutical composition for the treatment of virus diseases, such as flu” (OOO "CytoNIR", priority 2014, dated 2015).

This test relates to Grippevirus A/Vladivostok/2/09 (H1N1). Description: Survival of mice infected with a lethal dose of influenza virus, peroral treatment for 5 days. The test is classed as in vivo, Mäuse. The following applies: for To-des-fälle / Überleben-de Mäuse / MLD, Tage (mittlere Lebensdauer innerhalb der Beobachtungsfrist) / Sterblichkeit % / MLD-Erhöhung, Tage / Schutzkennzahl, %: Tamiflu 30 mg/kg; for MLD-Erhöhung, Tage / Schutzkennzahl, %: versus Placebo. From the text:
Die Wirksamkeit des Mittels wurde an einem Modell der Überlebensfähigkeit von angesteckten Versuchstieren geprüft. Die Versuchstiere wurden mit einer tödlichen Dosis des Grippevirus A/Vladivostok/2/09 (H1N1) angesteckt. Während der Forschung wurde das erfindungsgemäße Mittel 5 Tage lang peroral verabreicht.
Als Versuchstiere wurden weiße männliche Auszucht-Mäuse mit einem Körpergewicht von 16 - 18 g aus der Aufzuchtstation Rappolovo der Russischen Akademie der medizinischen Wissenschaften verwendet. Vor der Prüfung wurden die Versuchstiere einer Quarantäne in einem Vivarium im Laufe einer Woche unterzogen. Die Versuchstiere wurden unter genormten Klima-Bedingungen mit ausgewogener Fütterung gehalten. Jede Gruppe enthielt je 30 Versuchstiere.
Um eine versuchsmäßige Grippe-Infektion zu simulieren, wurde ein bestimmter Virusstamm eingesetzt. Die Versuchstiere wurden mit dem A/Vladivostok/2/09 (H1N1)-Virus in Mengen von 1 und 10 DL50 intranasal angesteckt.
Die Behandlung der angesteckten Mäuse wurde 24 Stunden nach der Ansteckung begonnen. Die Präparate wurden intragastrisch mittels einer Sonde verabreicht. Bei diesen Präparaten handelte es sich um eine Lösung in einer physiologischen Kochsalzlösung. Die Dosis des Arzneimittels wurde pro ein kg des Körpergewichts des Tieres berechnet. Die Behandlung wurde im Laufe von 5 Tagen vorgenommen. Die Wirksamkeit des Mittels wurde anhand der Überlebensraten der Tiere am 21. Tag nach der Ansteckung beurteilt.
Die erste Gruppe der Versuchstiere erhielt eine Lösung von Glutamyltryptophan und Natriumsalz der Glycyrrhizinsäure (nachfolgend GTGS); die zweite Gruppe der Tiere erhielt ein Präparat Tamiflu (Handelsnahme des Präparats Oseltamyvir) in der Dosis von 30 mg/kg; die dritte Gruppe der Tiere erhielt eine physiologische Kochsalzlösung (Placebo).

Where [1] appears, read: Virus-Dosis 1 (DL50), 15 animals per group, peroral day 1 to 5 after infection.
Setting [2] is: Virus-Dosis 1 (DL50), peroral day 1 to 5 after infection.
Setting [3] is: Virus-Dosis 10 (DL50), 15 animals per group, peroral day 1 to 5 after infection.
Where [4] appears, read: Virus-Dosis 10 (DL50), peroral day 1 to 5 after infection.
Setting [5] is: Virus-Dosis Gesamtdosis (both virus doses pooled), 30 animals, peroral day 1 to 5 after infection.
[6] abbreviates: Virus-Dosis Gesamtdosis (both virus doses pooled), peroral day 1 to 5 after infection.
[7] abbreviates: Virus-Dosis Gesamtdosis (both virus doses pooled).

The structures appear in SMILES notation.

Regarding `CCOC(=O)C1=C[C@@H](OC(CC)CC)[C@H](NC(C)=O)[C@@H](N)C1` [Tamiflu, Oseltamyvir], the To-des-fälle was 6 under setting [1], 12 under setting [3] and 18 under setting [5]. Also, the “Überleben-de Mäuse” value turned out to be 9 under setting [1], 3 under setting [3] and 12 under setting [5]. Further, the “MLD, Tage (mittlere Lebensdauer innerhalb der Beobachtungsfrist)” value is recorded as 11,7 Tage under setting [2], 9,0 Tage under setting [4] and 10,4 Tage under setting [6]. Besides, the Sterblichkeit % is listed as 40,0% under setting [2], 80,0% under setting [4] and 60,0% under setting [6]. Besides, the “MLD-Erhöhung, Tage” value was 1,1 Tage under setting [2], 1,9 Tage under setting [4] and 1,5 Tage under setting [7]. For the same compound, the “Schutzkennzahl, %” value reads like this: under setting [2], 25,0%; under setting [4], 14,3%; under setting [7], 18,2%. Under “virus dose 10 DL50, 30 mg/kg”, this compound had a Todesfälle of 80%.
